Experimental data as given in PMC11571207, “Stereorandomized Oncocins with Preserved Ribosome Binding and Antibacterial Activity” (Journal of Medicinal Chemistry, 2024).
Read-outs that look alike come from different tables or passages of the source. Non-standard residues stand in square brackets, D forms with d. Residues, ends and D or L forms follow the SMILES beside them.

How the values were obtained:
A. baumannii ATCC19606 = experiment: microbe, parasite or virus in culture; settings: for MIC A. baumannii ATCC19606: supplement CSV
Outline: (§1)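 Read-out was visible growth after MTT addition, the MIC being the lowest inhibitory peptide concentration. Bacteria grown to log phase in LB were exposed in MH medium to peptide from 64 μg/mL in twofold dilutions for 15-18h at 37°C.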

E. coli W3110 = experiment: microbe, parasite or virus in culture; settings: for MIC E. coli W3110: supplement CSV
Outline: as §1

K. pneumoniae NCTC 418 = experiment: microbe, parasite or virus in culture; settings: for MIC K. pneumoniae NCTC418: supplement CSV
Outline: as §1

P. aeruginosa PAO1 = experiment: microbe, parasite or virus in culture; settings: for MIC P. aeruginosa PAO1: supplement CSV
Outline: as §1

S. aureus COL (MRSA) = experiment: microbe, parasite or virus in culture; settings: for MIC S. aureus COL (MRSA): supplement CSV
Outline: as §1

E. cloacae = experiment: microbe, parasite or virus in culture; settings: for MIC E. cloacae: supplement CSV
Method: (§2) Minimum inhibitory concentration assay
(§3) Antimicrobial activity was assayed against P. aeruginosa PAO1, K. pneumoniae NCTC418, E. coli W3110, A. baumannii ATCC 19606, methicillin-resistant S. aureus COL (MRSA), and for selected peptides on P. aeruginosa PA14 and the polymyxin-B-resistant derivative PA14 2P4, as well as the clinical isolates ZEM-1A and ZEM9A, K. pneumoniae OXA-48, S. aureus Newman, Enterobacter cloacae and Burkholderia cenocepacia. The minimal inhibitory concentration (MIC) was determined by using broth microdilution method. A colo ny of bacteria was picked and grown in Luria-Bertani (LB) medium overnight at 37°C. For E. coli BW25113 sbmA::kan the medium was supplemented with 25 mg/L of kanamycin. The next day, the culture was then regrown in LB medium to log phase (OD600 = 0.6 to 0.8), which lasted approximately 4 h, and diluted to an OD600 of 0.022 in the desired medium. Stock solutions of 1 mg/mL of the samples were prepared in sterilized milliQ water and diluted to the beginning concentration of 64 μg/mL in 300 μL Mueller Hinton (MH)-medium. The diluted samples were added to first well of 96-well microtiter plate (TPP, untreated, Faust Laborbedarf, AG, Schaffhausen) and diluted serially by ½. Finally, 4 μL of the bacterial suspension was inoculated into the sample solutions (150 μL/well) with a final inoculation of about 5∙10^5 CFU/mL. The plates were then incubated at 37°C for 15-18h. For each assay, sterility (broth only) and growth control (broth with bacterial inoculum, without antibiotics) were checked with two columns in the plate. The next day, 15 μL of 3-(4,5-dimethylthiazol-2-yl)-2,5-diphenyltetrazolium bromide (MTT) was added to each well of the plate, such a way that MIC was defined as the lowest concentration of the peptide that inhibited visible growth of the tested

K. pneumoniae OXA-48 = experiment: microbe, parasite or virus in culture; settings: for MIC K. pneumoniae OXA-48: supplement CSV
Method: as §2, §3

[1] = system: P. aeruginosa PA14 2P4 (pmrB); experiment: microbe, parasite or virus in culture; settings: for MIC P. aeruginosa PA14 2P4: supplement CSV
Method: as §2, §3

P. aeruginosa PA14 = experiment: microbe, parasite or virus in culture; settings: for MIC P. aeruginosa PA14: supplement CSV
Method: as §2, §3

P. aeruginosa ZEM-1A = experiment: microbe, parasite or virus in culture
Method: as §2, §3

P. aeruginosa ZEM9A = experiment: microbe, parasite or virus in culture; settings: for MIC P. aeruginosa ZEM9A: supplement CSV
Method: as §2, §3

[2] = system: P. aeruginosa PA14 4.13 (phoQ); settings: for MIC P. aeruginosa PA14 4.13: supplement CSV
[3] = system: P. aeruginosa PA14 4.18 (pmrB); settings: for MIC P. aeruginosa PA14 4.18: supplement CSV
human red blood cells = experiment: Hemolysis assay, minimum hemolytic concentration
[4] = polymyxin B resistant strain, 12.5% MHB pH 7.4, 16–20 h at 37 °C
[5] = polymyxin B resistant strain, full MHB pH 7.4, 16–20 h at 37 °C

CC[C@@H](C)[C@@H](NC(=O)[C@@H](CCCNC(=N)N)NC(=O)[C@H](CCCNC(=N)N)NC(=O)[C@@H]1CCCN1C(=O)[C@@H]1CCCN1C(=O)[C@H](CCCNC(=N)N)NC(=O)[C@@H]1CCCN1C(=O)[C@H](CCCNC(=N)N)NC(=O)[C@@H]1CCCN1C(=O)[C@H](CC(C)C)NC(=O)[C@H](Cc1ccc(O)cc1)NC(=O)[C@@H]1CCCN1C(=O)[C@@H]1CCCN1C(=O)[C@H](CCCCN)NC(=O)[C@H](CC(=O)O)NC(=O)[C@@H](N)C(C)C)C(=O)N[C@H](Cc1ccc(O)cc1)C(=O)N[C@H](CC(N)=O)C(=O)N[C@H](CCCNC(=N)N)C(N)=O [D5Cterm-Onc] (H-VDKPPYLPRPRPPR[dR][dI][dY][dN][dR]-NH2)
> 64 mg/L: MIC S. aureus, Full MHB (S. aureus COL (MRSA); S. aureus COL (MRSA), full Müller–Hinton medium, 16–20 h at 37 °C) | MIC P. aeruginosa PA14 2P4 (pmrB), full MHB [1, 5] | MIC P. aeruginosa PA14, full MHB (P. aeruginosa PA14; full MHB pH 7.4, 16–20 h at 37 °C, two different duplicate MIC determinations) | MIC P. aeruginosa ZEM9A, full MHB (P. aeruginosa ZEM9A; clinical isolate, full MHB pH 7.4, 16–20 h at 37 °C)
8 mg/L: MIC A. baumannii, 12.5% MHB (A. baumannii ATCC19606; A. baumannii ATCC19606, 12.5% Müller–Hinton medium, 16–20 h at 37 °C) | MIC A. baumannii ATCC19606 (A. baumannii ATCC19606; 12.5% MH pH 7.4) | MIC P. aeruginosa, 12.5% MHB (P. aeruginosa PAO1; P. aeruginosa PAO1, 12.5% Müller–Hinton medium, 16–20 h at 37 °C) | MIC P. aeruginosa PAO1 (P. aeruginosa PAO1; 12.5% MH pH 7.4) | MIC P. aeruginosa PA14, 12.5% MHB (P. aeruginosa PA14; 12.5% MHB pH 7.4, 16–20 h at 37 °C, two different duplicate MIC determinations) | MIC P. aeruginosa PA14 (P. aeruginosa PA14; 12.5% MH pH 7.4) | MIC P. aeruginosa PA14 4.13 (phoQ), 12.5% MHB [2, 4] | MIC P. aeruginosa PA14 4.13 ([2]; 12.5% MH pH 7.4) | MIC P. aeruginosa PA14 4.18 (pmrB), 12.5% MHB [3, 4] | MIC P. aeruginosa PA14 4.18 ([3]; 12.5% MH pH 7.4)
2 mg/L: MIC E. coli, 12.5% MHB (E. coli W3110; E. coli W3110, 12.5% Müller–Hinton medium, 16–20 h at 37 °C, broth microdilution) | MIC E. coli W3110 (E. coli W3110; 12.5% MH pH 7.4) | MIC K. pneumoniae, 12.5% MHB (K. pneumoniae NCTC 418; K. pneumoniae NCTC 418, 12.5% Müller–Hinton medium, 16–20 h at 37 °C) | MIC K. pneumoniae NCTC418 (K. pneumoniae NCTC 418; 12.5% MH pH 7.4) | MIC P. aeruginosa PA14 2P4 (pmrB), 12.5% MHB [1, 4] | MIC P. aeruginosa PA14 2P4 ([1]; 12.5% MH pH 7.4) | MIC P. aeruginosa ZEM9A, 12.5% MHB (P. aeruginosa ZEM9A; clinical isolate, 12.5% MHB pH 7.4, 16–20 h at 37 °C) | MIC P. aeruginosa ZEM9A (P. aeruginosa ZEM9A; 12.5% MH pH 7.4)
4 mg/L: MIC E. coli, Full MHB (E. coli W3110; E. coli W3110, full Müller–Hinton medium, 16–20 h at 37 °C, broth microdilution) | MIC E. coli W3110 (E. coli W3110; full MH pH 7.4) | MIC K. pneumoniae, Full MHB (K. pneumoniae NCTC 418; K. pneumoniae NCTC 418, full Müller–Hinton medium, 16–20 h at 37 °C) | MIC K. pneumoniae NCTC418 (K. pneumoniae NCTC 418; full MH pH 7.4) | MIC K. pneumoniae OXA-48, 12.5% MHB (K. pneumoniae OXA-48; carbapenem-resistant, 12.5% MHB pH 7.4, 16–20 h at 37 °C) | MIC K. pneumoniae OXA-48 (K. pneumoniae OXA-48; 12.5% MH pH 7.4)
1 mg/L: MIC E. cloacae, 12.5% MHB (E. cloacae; 12.5% MHB pH 7.4, 16–20 h at 37 °C) | MIC E. cloacae (E. cloacae; 12.5% MH pH 7.4)
>64 mg/L: MIC S. aureus COL (MRSA) (S. aureus COL (MRSA); full MH pH 7.4) | MIC P. aeruginosa PA14 2P4 ([1]; full MH pH 7.4) | MIC P. aeruginosa PA14 (P. aeruginosa PA14; full MH pH 7.4) | MIC P. aeruginosa ZEM9A (P. aeruginosa ZEM9A; full MH pH 7.4)
64 mg/L: MIC A. baumannii, Full MHB (A. baumannii ATCC19606; A. baumannii ATCC19606, full Müller–Hinton medium, 16–20 h at 37 °C) | MIC A. baumannii ATCC19606 (A. baumannii ATCC19606; full MH pH 7.4) | MIC P. aeruginosa, Full MHB (P. aeruginosa PAO1; P. aeruginosa PAO1, full Müller–Hinton medium, 16–20 h at 37 °C) | MIC P. aeruginosa PAO1 (P. aeruginosa PAO1; full MH pH 7.4) | MIC P. aeruginosa PA14 4.13 (phoQ), full MHB [2, 5] | MIC P. aeruginosa PA14 4.13 ([2]; full MH pH 7.4) | MIC P. aeruginosa PA14 4.18 (pmrB), full MHB [3, 5] | MIC P. aeruginosa PA14 4.18 ([3]; full MH pH 7.4)
>1000 µg/mL: Haemolysis on hRBC, MHC (human red blood cells; 2.5% human red blood cells (final) in 10 mM phosphate, 150 mM NaCl, pH 7.4, 25 °C, 4 h, visual inspection) | MHC human red blood cells (human red blood cells; supplement CSV)
32 mg/L: MIC S. aureus, 12.5% MHB (S. aureus COL (MRSA); S. aureus COL (MRSA), 12.5% Müller–Hinton medium, 16–20 h at 37 °C) | MIC S. aureus COL (MRSA) (S. aureus COL (MRSA); 12.5% MH pH 7.4) | MIC E. cloacae, full MHB (E. cloacae; full MHB pH 7.4, 16–20 h at 37 °C) | MIC E. cloacae (E. cloacae; full MH pH 7.4) | MIC K. pneumoniae OXA-48, full MHB (K. pneumoniae OXA-48; carbapenem-resistant, full MHB pH 7.4, 16–20 h at 37 °C) | MIC K. pneumoniae OXA-48 (K. pneumoniae OXA-48; full MH pH 7.4)
4 to 8 mg/L: MIC P. aeruginosa ZEM-1A, 12.5% MHB (P. aeruginosa ZEM-1A; clinical isolate, 12.5% MHB pH 7.4, 16–20 h at 37 °C, cells marked c: single measurement (in duplicates)) | MIC P. aeruginosa ZEM-1A (P. aeruginosa ZEM-1A; supplement CSV, 12.5% MH pH 7.4)
